According to US4774078A, “Stable antiplaque dentifrice based on hexetidine, zinc ion and fluoride” (Colgate-Palmolive Company, priority 1986, dated 1988):
Read-outs that look alike come from different tables or passages of the source.

Columns and labels:
[1] = Active ingredient stability of dentifrice after aging 9 weeks at 49° C.
Description: The pH of the dentifrice can be adjusted to 5-6 with an appropriate acid such as acetic acid, citric acid, hydrochloric acid, phosphoric acid, etc., if necessary.

[2] = cited from earlier work
[3] = tested on: Strep mutans; assay: MIC (minimum inhibitory concentration) with Strep. mutans; type: cell-based; settings: active ingredient alone, water/alcohol/propylene glycol mixture, total bacterial inhibition
Description: Hexetidine is a broad-spectrum, water-insoluble antibacterial, having the chemical formula [drawing 1] 5-amino-1,3-bis(2 ethylhexyl)-5-methyl-hexahydropyrimidine. It has been used as an antibacterial agent in antiplaque and antigingivitis oral compositions as previously discussed. However, hexetidine is a bitter-tasting chemical, thereby limiting its use to low levels in order to minimize its bitter taste, which in turn limits its therapeutic activity.
Table I gives the MIC (minimum inhibitory concentration) results with Strep. mutans.
All the active ingredients (AI) are in water/alcohol/propylene glycol mixtures.
The FIC (Fractional Inhibitory Concentration), has been calculated from the MIC data for each ratio.
A minimum concentration of 0.60 ppm hexetidine alone is needed for total bacterial inhibition, and a minimum concentration of 40 ppm of zinc++ alone is required for total bacterial inhibition; whereas a concentration of 0.12 ppm hexetidine in combination with 0.12 ppm zinc++ effects total bacterial inhibition. This increase in the antibacterial activity of the hexetidine due to the presence of the zinc++ reduces the amount necessary to produce a therapeutic effect, and this minimizes the bitter taste associated with hexetidine.

| Molecule | % Available After Aging ([1]; in dentifrices of Examples 1 and 2 (sodium lauryl sulfate), pH 5-6, 90720 min) [%] | % Available After Aging ([1]; in dentifrices of Examples 3 and 4 (polyoxyethylene (20) sorbitan monoisostearate), pH 5.0-6.0, 90720 min) [%] | water solubility [2] | MIC ([3]; Streptococcus mutans, read-out: MIC) [µg/mL] | MIC [3] [ppm] | MIC ([3]; listed as zinc++) [ppm] |
| --- | --- | --- | --- | --- | --- | --- |
| CCCCC(CC)CN1CN(CC(CC)CCCC)CC(C)(N)C1 (stereo not shown) [Hexetidine, 5-amino-1,3-bis(2 ethylhexyl)-5-methyl-hexahydropyrimidine] | 65 | 92 | water-insoluble | 0.6 | 0.60 |  |
| Zinc++ |  |  |  |  | 40.00 | 40 |
